The source of these data is ChEMBL document CHEMBL4431312, “Development of an Orally Available and Central Nervous System (CNS) Penetrant Toxoplasma gondii Calcium-Dependent Protein Kinase 1 (TgCDPK1) Inhibitor with Minimal Human Ether-a-go-go-Related Gene (hERG) Activity for the Treatment of Toxoplasmosis” (J Med Chem, 2016).

Converted amounts (≈) assume the structure as drawn.

The target of series [1] is Proto-oncogene tyrosine-protein kinase Src (Gallus gallus, UniProt P00523).
In series [2] the target is Voltage-gated inwardly rectifying potassium channel KCNH2 (Homo sapiens, UniProt Q12809).
Chain of Voltage-gated inwardly rectifying potassium channel KCNH2 (Q12809 whole entry): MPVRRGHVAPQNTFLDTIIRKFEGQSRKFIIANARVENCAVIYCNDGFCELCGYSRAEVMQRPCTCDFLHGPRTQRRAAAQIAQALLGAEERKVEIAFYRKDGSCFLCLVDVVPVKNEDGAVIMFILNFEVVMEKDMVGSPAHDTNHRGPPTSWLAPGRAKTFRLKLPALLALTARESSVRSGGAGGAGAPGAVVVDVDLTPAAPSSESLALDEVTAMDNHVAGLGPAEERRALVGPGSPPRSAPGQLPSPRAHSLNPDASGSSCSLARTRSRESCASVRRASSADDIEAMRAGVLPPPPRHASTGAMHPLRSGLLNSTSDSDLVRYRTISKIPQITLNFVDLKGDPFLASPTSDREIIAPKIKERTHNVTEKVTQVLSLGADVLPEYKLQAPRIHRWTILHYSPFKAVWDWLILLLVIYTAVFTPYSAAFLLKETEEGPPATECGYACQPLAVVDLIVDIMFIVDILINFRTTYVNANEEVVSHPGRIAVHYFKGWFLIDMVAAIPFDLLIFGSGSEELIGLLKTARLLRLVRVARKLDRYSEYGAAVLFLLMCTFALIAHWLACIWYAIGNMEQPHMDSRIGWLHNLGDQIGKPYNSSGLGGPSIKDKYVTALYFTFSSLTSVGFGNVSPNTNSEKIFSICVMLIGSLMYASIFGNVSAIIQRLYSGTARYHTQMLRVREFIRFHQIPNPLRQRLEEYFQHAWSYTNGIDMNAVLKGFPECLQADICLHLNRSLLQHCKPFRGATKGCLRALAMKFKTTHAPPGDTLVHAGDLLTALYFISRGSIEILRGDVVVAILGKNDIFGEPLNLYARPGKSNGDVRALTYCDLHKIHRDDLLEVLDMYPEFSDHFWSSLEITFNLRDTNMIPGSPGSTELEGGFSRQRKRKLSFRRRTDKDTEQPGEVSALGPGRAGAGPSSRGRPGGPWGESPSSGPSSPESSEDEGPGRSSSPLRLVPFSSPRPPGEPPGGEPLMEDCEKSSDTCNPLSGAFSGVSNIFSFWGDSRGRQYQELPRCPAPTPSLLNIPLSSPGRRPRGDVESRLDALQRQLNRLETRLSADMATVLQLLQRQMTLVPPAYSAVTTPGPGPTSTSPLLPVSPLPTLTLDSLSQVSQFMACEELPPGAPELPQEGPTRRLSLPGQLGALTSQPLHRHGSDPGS
The conditions of series [3]: mouse, in vivo, po, 10 mg/kg.
Series [4] is described as follows: in vivo. To be noted: BALB/c, mouse, plasma, po, 10 mg/kg.
Series [5] is described as follows: in vivo. To be noted: BALB/c, mouse, plasma, po, 10 mg/kg. The source holds these as a separate data set.
The nature of series [6]: in vitro. To be noted: human, HepG2 cells.
Series [7] in a line: in vitro. To be noted: human, CRL8155 cells.
The conditions of series [8]: buffer, pH 6.5.
Series [9] in a line: in vivo. Particulars: BALB/c, mouse, plasma, po, 10 mg/kg. This is another data set of the same source.
Series [10] in a line: in vivo. Particulars: BALB/c, mouse, plasma, po, 10 mg/kg. This is another data set of the same source.
The target in series [11] is T1, Calmodulin-domain protein kinase 1 (Toxoplasma gondii, UniProt Q9BJF5).
T1 sequence (Q9BJF5 whole entry): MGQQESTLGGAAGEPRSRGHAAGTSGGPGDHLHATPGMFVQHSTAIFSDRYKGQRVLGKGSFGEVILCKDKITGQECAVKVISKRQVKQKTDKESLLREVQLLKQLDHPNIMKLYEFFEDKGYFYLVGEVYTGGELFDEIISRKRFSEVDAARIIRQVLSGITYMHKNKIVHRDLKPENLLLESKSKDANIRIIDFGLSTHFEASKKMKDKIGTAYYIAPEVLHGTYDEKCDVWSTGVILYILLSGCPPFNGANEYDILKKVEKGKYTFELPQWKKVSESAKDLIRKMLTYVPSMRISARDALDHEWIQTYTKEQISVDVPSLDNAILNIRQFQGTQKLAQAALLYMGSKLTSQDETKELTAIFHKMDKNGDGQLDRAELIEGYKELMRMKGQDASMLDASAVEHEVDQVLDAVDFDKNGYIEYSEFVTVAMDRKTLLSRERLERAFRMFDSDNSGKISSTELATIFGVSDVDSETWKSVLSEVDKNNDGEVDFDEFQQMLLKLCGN

Series [12] in a line: in vivo. Particulars: BALB/c, mouse, plasma, po, 10 mg/kg. The source holds these as a separate data set.
The conditions of series [13]: mouse, in vivo, po, 10 mg/kg. The source holds these as a separate data set.
The test system of series [14] is Toxoplasma gondii. The series is described as follows: microbe, parasite or virus in culture. To be noted: 44 h.

Regarding `CCOc1ccc2cc(-c3nn(CC4CCN(C)CC4)c4ncnc(N)c34)ccc2c1`, the IC50 is greater than 10 µM in series [1] and 0.4 µM in [2]. The Cmax in series [3] is 750 nM. Also, in series [4], the Tmax is 2 h. Moreover, the CL/F in [5] turned out to be 0.7 mL/min. The GI50 at 48 h in [6] and in series [7] was greater than 10 µM in each case.
Consider `CCOc1ccc2cc(-c3nn(CC4CCN(C(C)=O)CC4)c4ncnc(N)c34)ccc2c1`, for which the IC50 in series [1] and in [2] was greater than 10 µM in each case. The compound further displayed a solubility in series [8] of 48 µM (≈ 21.3 µg/mL). Besides, the Cmax in [9] was 890 nM. Further, the area under the curve AUC(0-inf) in series [10] is 1.57 µM·h. In series [5], this compound displayed a CL/F of 2.5 mL/min. The GI50 at 48 h in [6] and in series [7] was greater than 10 µM throughout.
Consider `CN1CCC(Cn2nc(-c3ccc4cc(OC5COC5)ccc4c3)c3c(N)ncnc32)CC1`, for which the values for the IC50 in [11] and in series [1] were 0.01 µM and greater than 10 µM, respectively. For the same compound, the GI50 at 48 h in series [6] and in series [7] was greater than 10 µM throughout.
Turning to `CC1(Cn2nc(-c3ccc4cc(OC5CC5)ccc4c3)c3c(N)ncnc32)COC1`, the IC50 in [11] was 0.0021 µM; in [1], greater than 10 µM; in series [2], 1.9 µM. The GI50 at 48 h in series [6] and in [7] was greater than 10 µM throughout.
`CC(C)(CO)Cn1nc(-c2ccc3nc(OCC(F)(F)F)ccc3c2)c2c(N)ncnc21`: the IC50 is 0.017 µM in [11] and greater than 10 µM in series [1]. For the same compound, the GI50 at 48 h in [6] and in [7] was greater than 10 µM each time.
Regarding `CN(C)CC(C)(C)Cn1nc(-c2ccc3nc(OC4CC4)ccc3c2)c2c(N)ncnc21`, the IC50 in series [1] is greater than 10 µM; in series [2], 0.082 µM. Also, the GI50 at 48 h in [6] and in [7] was greater than 10 µM throughout.
As to `CN1CCC(Cn2nc(-c3ccc4cc(OC5CCC5)ccc4c3)c3c(N)ncnc32)CC1`, the IC50 in series [1] is greater than 10 µM; in series [2], 0.2 µM. In addition, the GI50 at 48 h in [6] and in [7] was greater than 10 µM each time.
In the case of `CCOc1ccc2cc(-c3nn(CC(C)(C)O)c4ncnc(N)c34)ccc2n1`, the IC50 in series [1] and in series [2] was greater than 10 µM each time. The compound also yielded a CL/F in series [5] of 0.2 mL/min. The GI50 at 48 h in [6] and in series [7] was greater than 10 µM throughout.
Turning to `CCOc1ccc2cc(-c3nn(CC4CCN(C(C)C)CC4)c4ncnc(N)c34)ccc2c1`, the IC50 in [11] is 0.01 µM; in series [1], greater than 10 µM; in series [2] it was 0.3 µM. The GI50 at 48 h in series [6] and in series [7] was greater than 10 µM in each case.
Regarding `CN1CCC(Cn2nc(-c3ccc4nc(OCC(F)(F)F)ccc4c3)c3c(N)ncnc32)CC1`, the IC50 in series [2] stood at 0.5 µM.
As for `CC(C)Cn1nc(-c2ccc3cc(OC4CC4)ccc3c2)c2c(N)ncnc21`, the IC50 in series [11] is 0.0011 µM; in [1], 3.7 µM; in [2], greater than 10 µM. The same compound gave a GI50 at 48 h in series [7] greater than 10 µM.
In series [1], `CCOc1ccc2cc(-c3nn(CC(C)(C)O)c4ncnc(N)c34)ccc2c1` came in with an IC50 greater than 10 µM. The GI50 at 48 h in [6] and in [7] was greater than 10 µM throughout.
Compound `COCCOc1ccc2cc(-c3nn(CC4CCN(C)CC4)c4ncnc(N)c34)ccc2c1` registered a half-inhibitory concentration (IC50) in [1] greater than 10 µM. Also, the GI50 at 48 h in series [6] and in series [7] was greater than 10 µM in each case.
Turning to `CC(C)(CO)Cn1nc(-c2ccc3nc(OC4CC4)ccc3c2)c2c(N)ncnc21`, the IC50 in series [1] was 7.4 µM; in series [2], greater than 10 µM. Moreover, in series [8], the solubility amounted to 8 µM (≈ 3.24 µg/mL). For the same compound, the Cmax in series [9] came to 3900 nM. In series [10], this compound had an AUC(0-inf) of 0.065 µM·h. Also, the half-life in [12] turned out to be 0.683 h. Besides, in [5], the CL/F was determined as 21 mL/min. In addition, the GI50 at 48 h in series [6] and in series [7] was greater than 10 µM each time.
In the case of `Nc1ncnc2c1c(-c1ccc3nc(OC4CC4)ccc3c1)nn2CC1CCOCC1`, the IC50 in series [1] and in series [2] was greater than 10 µM each time. The Tmax in series [13] worked out at 0.5 h. This compound displayed a Cmax in series [3] of 880 nM. The compound also had an area under the curve AUC(0-inf) in series [10] of 1.12 µM·h. In series [5], this compound displayed a CL/F of 110 mL/min. The GI50 at 48 h in [6] and in series [7] was greater than 10 µM throughout. In [14], the EC50 came out at 0.081 µM.
As for `CN1CCC(Cn2nc(-c3ccc4nc(OC5CC5)ccc4c3)c3c(N)ncnc32)CC1`, the results for the 50% inhibitory concentration (IC50) in series [1] and in series [2] were greater than 10 µM and 1.7 µM, respectively. The compound also yielded a concentration for 50% growth inhibition (GI50) at 48 h in series [6] greater than 10 µM.
Turning to `CCOc1ccc2cc(-c3nn(CC4CCOCC4)c4ncnc(N)c34)ccc2c1`, the IC50 in series [11] was 0.002 µM; in [1], greater than 10 µM; in [2] it was greater than 10 µM. Also, the GI50 at 48 h in [6] and in series [7] was greater than 10 µM each time.
`CN1CCC(Cn2nc(-c3ccc4cc(OC5CC5)ccc4c3)c3c(N)ncnc32)CC1`: the values for the IC50 in series [11], in series [1] and in series [2] were 0.0015 µM, greater than 10 µM and 0.37 µM, respectively. In addition, in series [7], the GI50 at 48 h was greater than 10 µM.
For the compound `CC(C)(CO)Cn1nc(-c2ccc3cc(OC4CC4)ccc3c2)c2c(N)ncnc21`, the results for the IC50 in series [1] and in series [2] were 3.1 µM and greater than 10 µM, respectively. In series [3], this compound yielded a Cmax of 390 nM. In series [10], this compound gave an AUC(0-inf) of 0.517 µM·h. The CL/F in [5] came out at 6.7 mL/min. In addition, the GI50 at 48 h in [6] and in series [7] was greater than 10 µM in each case. In series [14], this compound returned an EC50 of 0.056 µM.
On to `CC1(Cn2nc(-c3ccc4nc(OC5CC5)ccc4c3)c3c(N)ncnc32)COC1`, for which the IC50 in series [1] and in series [2] was greater than 10 µM in each case. Further, the GI50 at 48 h in [6] and in series [7] was greater than 10 µM each time.
With `CC(C)Cn1nc(-c2ccc3nc(OC4CC4)ccc3c2)c2c(N)ncnc21`, the IC50 in series [1] and in series [2] was greater than 10 µM each time. Besides, the GI50 at 48 h in series [6] and in [7] was greater than 10 µM in each case.
Consider `CCOc1ccc2cc(-c3nn(CC4CN(C)C4)c4ncnc(N)c34)ccc2c1`, for which the results for the IC50 in series [11], in series [1] and in series [2] were 0.006 µM, greater than 10 µM and 1.4 µM, respectively. Further, the GI50 at 48 h in series [6] and in [7] was greater than 10 µM each time.
For `Nc1ncnc2c1c(-c1ccc3cc(OC4CC4)ccc3c1)nn2CC1CCOCC1`, the IC50 in series [11] is 0.0024 µM; in series [1] it was 0.37 µM; in [2], greater than 10 µM. Besides, the GI50 at 48 h in series [6] and in series [7] was greater than 10 µM throughout.
As for `CN1CCC(Cn2nc(-c3ccc4cc(OCC5CC5)ccc4c3)c3c(N)ncnc32)CC1`, the IC50 in [1] is greater than 10 µM; in series [2] it was 0.9 µM. Besides, the GI50 at 48 h in series [6] and in series [7] was greater than 10 µM each time.
Consider `CCOc1ccc2cc(-c3nn(CC4CCOCC4)c4ncnc(N)c34)ccc2n1`, for which the IC50 in series [1] and in series [2] was greater than 10 µM throughout. Besides, the GI50 at 48 h in series [6] and in series [7] was greater than 10 µM throughout.
Turning to `CCOc1ccc2cc(-c3nn(CC4CCN(C)CC4)c4ncnc(N)c34)ccc2n1`, the IC50 is 0.0061 µM in series [11], greater than 10 µM in series [1] and 10 µM in series [2]. For the same compound, the Tmax in series [4] is 3.33 h. In series [9], this compound returned a Cmax of 260 nM. Further, in series [12], the half-life is 3.72 h. In series [5], this compound had a CL/F of 1.8 mL/min. For the same compound, the GI50 at 48 h in series [6] and in series [7] was greater than 10 µM in each case.
Regarding `CCOc1ccc2cc(-c3nn(CC4CN(C(C)=O)C4)c4ncnc(N)c34)ccc2c1`, the IC50 in series [11] was 0.004 µM; in [1], 1.1 µM; in series [2] it was greater than 10 µM. The GI50 at 48 h in series [6] and in series [7] was greater than 10 µM in each case.
Compound `Nc1ncnc2c1c(-c1ccc3cc(OC4CC4)ccc3c1)nn2CC(O)(C(F)(F)F)C(F)(F)F` showed an IC50 in [1] greater than 10 µM. The GI50 at 48 h in series [6] and in series [7] was greater than 10 µM in each case.
In the case of `CCOc1ccc2cc(-c3nn(CC4CNC4)c4ncnc(N)c34)ccc2c1`, the figures for the IC50 in series [11], in [1] and in [2] were 0.0032 µM, greater than 10 µM and 1.7 µM, respectively. Also, the concentration for 50% growth inhibition (GI50) at 48 h in series [6] and in series [7] was greater than 10 µM in each case.
For the compound `CCOc1ccc2cc(-c3nn(CC(C)C)c4ncnc(N)c34)ccc2c1`, the IC50 in series [1] and in [2] was greater than 10 µM each time. For the same compound, the GI50 at 48 h in series [6] and in [7] was greater than 10 µM in each case.

As usually defined, the IC50 is the concentration that gives 50% inhibition. Lower therefore signals higher potency. Usually Cmax stands for the peak of the concentration-time curve. For orientation: Tmax means the time at which the peak concentration occurs. In general, CL/F refers to the apparent clearance, not corrected for the fraction that reaches the circulation. In general, GI50 refers to the concentration that inhibits growth by half. Read a low GI50 as more potent growth inhibition. A word on the solubility: it is how much of the substance goes into solution per volume. A high value points to a readily soluble substance. Usually AUC(0-inf) stands for total exposure, with the tail of the curve extrapolated. One may read the half-life as the time needed for the level to fall by half in the phase considered. The EC50 is the concentration at which the effect is half-maximal.
